Test results published in patent US20220023289A1, “Application Of Pyrroloquinoline Quinone In Preparation Of Medicament Used For Preventing And Treating Acute Altitude Sickness And Acute Altitude Hypoxia Injury” (priority 2018, published 2022).

Legend:
[1] = system: rats exposed to acute altitude hypoxia; experiment: Lipid metabolism in rats exposed to acute altitude hypoxia; assay type: in vivo, Wistar rat
Experimental: (§1) Select healthy Wistar rats weight 160-200 g, half female and half male. After feeding for 3 days, these Wistar rats are randomly divided into ten groups according to their body weight, each group has 16±2 rats. The groups are divided as follows: five groups of the hypoxic exposure drug test group, respectively, are given 0.91 mg/kg, 1.83 mg/kg, 3.66 mg/kg, 7.31 mg/kg, and 14.63 mg/kg drugs. […] After continuous intragastric administration for 7 days, the animals in the hypoxic exposure group are simultaneously put into the decompression and hypoxia compound experimental chamber, the hatch is closed, and the pressure is reduced at a speed of 10 m/s. After being raised to an altitude of 6000 m and maintained for 8 hours, the speed in 10 m/s drops is reduced to normal altitude, open the hatch, and then take out the animal, collect blood samples (after standing for 1 hour, the supernatant is centrifuged and stored at −20° C.), and liver tissue samples. Detection indicator includes body weight, serum blood glucose, ATP, lactic acid, endothelin, nitric oxide, SOD, CO, MDA related to oxidative stress, and total protein, albumin, triglycerides, total cholesterol, high-density lipoprotein cholesterol, low-density lipoprotein cholesterol, glutamic pyruvic transaminase, total bilirubin, gluamic oxalacetic transaminase, serum urea nitrogen, creatinine, uric acid, lactate dehydrogenase, creatine kinase, α-hydroxybutyrate dehydrogenase; liver ATP, hepatic glycogen. Except that the formal oxygen control animal group is not put into the decompression and hypoxia compound experimental chamber, other experimental conditions and detection indicators are the same.
(§2) Measure blood glucose, total protein, albumin, triglycerides, total cholesterol, high-density lipoprotein cholesterol, low-density lipoprotein cholesterol, glutamic-pyruvic transaminase, total bilirubin, glutamic oxalacetic transaminase, serum urea nitrogen, creatinine, uric acid, lactate dehydrogenase, creatine kinase, α-hydroxybutyrate dehydrogenase, blood homocysteine by using an automatic blood biochemical analyzer.

[2] = system: rats exposed to acute altitude hypoxia; experiment: Protein metabolism in rats exposed to acute altitude hypoxia; assay type: in vivo, Wistar rat; conditions: for albumin (second column): 0.11 g/kg
Experimental: as §1, §2

[3] = Body weight of mice before closed hypoxia tolerance test; conditions: 0.16 g/kg
[4] = Mice weight before hypoxia tolerance test of simulated 10000 m altitude acute decompression; conditions: 0.16 g/kg
[5] = system: rats exposed to acute altitude hypoxia; experiment: Liver function of rats exposed to acute altitude hypoxia; assay type: in vivo, Wistar rat
Experimental: as §1, §2

[6] = system: rats exposed to acute altitude hypoxia; experiment: Blood glucose in rats exposed to acute altitude hypoxia (6000 m, 8 h, after 7 days intragastric); assay type: in vivo, Wistar rat; conditions: for Blood sugar: 0.11 g/kg
Experimental: as §1, §2

[7] = system: rats exposed to acute altitude hypoxia; experiment: Endothelial function (serum endothelin-1, nitric oxide) in rats exposed to acute altitude hypoxia; assay type: in vivo, Wistar rat; conditions: for Endothelin-1 / Nitric oxide: 0.11 g/kg
Source text: This method uses nitrate reductase specificity reduce NO^3− to NO^2−, and then determine the level of its concentration by displaying shades of color. Operate according to the kit instructions, measure the absorbance of each tube at a wavelength of 550 nm, and then calculate the content of nitric oxide of the sample to be tested according to the formula. To the coated microwells pre-coated with rat endothelin (endothelin-1) capture antibody, add in sequence specimens, standards, and HRP-labeled detection antibody, and then incubate and wash thoroughly. Use a substrate TMB for color development. TMB is converted into blue under the catalysis of peroxidase and converted into the final yellow color under the action of acid. The color intensity is positively correlated with the rat endothelin (endothelin-1) in the sample.

[8] = female rats, hypoxia, 0.11 g/kg
[9] = female rats, normoxia, 0.11 g/kg
[10] = seven days, repeat experiment in male mice

Question: Which “High density lipoprotein cholesterol” value [1, 8] does the source give for CC(=O)Nc1nnc(S(N)(=O)=O)s1 [Acetazolamide, reference compound] here?
Answer: The value was 1.55 ± 0.19 mmol/L.

Question: And the “Low density lipoprotein cholesterol” value [1, 8]?
Answer: Its value is 0.17 ± 0.04 mmol/L.

Question: And the Total cholesterol [1, 8]?
Answer: The Total cholesterol was 2.02 ± 0.20 mmol/L.

Question: And the “effect on low-density lipoprotein cholesterol” value ([1]; female rats, normoxia)?
Answer: The value was “no significant effects”.

Question: And the “effect on total cholesterol and high-density lipoprotein cholesterol” value ([1]; female rats, normoxia)?
Answer: Its value is “can increase”.

Question: What about the “High density lipoprotein cholesterol” value [1, 9] of the same compound?
Answer: The value was 1.67 ± 0.07 mmol/L.

Question: What about the “Low density lipoprotein cholesterol” value [1, 9] of the same compound?
Answer: The value was 0.16 ± 0.02 mmol/L.

Question: And the Total cholesterol [1, 9]?
Answer: Its Total cholesterol is 2.14 ± 0.10 mmol/L.

Question: What about the “effect on total cholesterol, low-density and high-density lipoprotein cholesterol” value ([1]; hypoxia exposed female rats) of the same compound?
Answer: Its value is “increasing”.

Question: And the “effect on total, high-density and low-density lipoprotein cholesterol” value ([1]; male rats)?
Answer: The value was “no significant effect”.

Question: What about the effect on triglycerides ([1]; male rats exposed to hypoxia) of the same compound?
Answer: The effect on triglycerides was “is not found”.

Question: What about the “High density lipoprotein cholesterol” value ([1]; male rats, hypoxia, 0.11 g/kg) of the same compound?
Answer: The value was 1.39 ± 0.14 mmol/L.

Question: And the “Low density lipoprotein cholesterol” value ([1]; male rats, hypoxia, 0.11 g/kg)?
Answer: The value was 0.21 ± 0.05 mmol/L.

Question: And the Total cholesterol ([1]; male rats, hypoxia, 0.11 g/kg)?
Answer: The Total cholesterol was 1.88 ± 0.21 mmol/L.

Question: And the Triglycerides ([1]; male rats, hypoxia, 0.11 g/kg)?
Answer: The Triglycerides was 1.05 ± 0.49 mmol/L.

Question: What about the “effect on serum total protein content” value ([2]; female rats) of the same compound?
Answer: The value was “has been not found”.

Question: What about the “albumin (second column)” value ([2]; female rats, hypoxia) of the same compound?
Answer: The value was 29.18 ± 1.68 g/L.

Question: What about the “effect on serum albumin content” value ([2]; female rats, normoxia) of the same compound?
Answer: The value was “can slightly increase”.

Question: And the “albumin (second column)” value ([2]; female rats, normoxia)?
Answer: Its value is 32.13 ± 0.45 g/L.

Question: What about the “effect on serum total protein content” value ([2]; male rats exposed to hypoxia) of the same compound?
Answer: The value was “is not found”.

Question: And the “albumin (second column)” value ([2]; male rats, hypoxia)?
Answer: The value was 27.87 ± 1.140 g/L.

Question: What about the “weight 1 day” value ([3]; female mice) of the same compound?
Answer: The value was 20.27 ± 0.90 g.

Question: And the “weight 3 days” value ([3]; female mice)?
Answer: Its value is 20.88 ± 1.50 g.

Question: What about the “weight 1 day” value ([3]; male mice) of the same compound?
Answer: The value was 15.41 ± 1.08 g.

Question: What about the “weight 3 days” value ([3]; male mice) of the same compound?
Answer: The value was 15.88 ± 1.24 g.

Question: What about the “Mice weight Female 1 day” value ([4]; administration for 14 days) of the same compound?
Answer: Its value is 15.24 ± 0.89 g.

Question: What about the “Mice weight Female 7 days” value ([4]; administration for 14 days) of the same compound?
Answer: Its value is 19.35 ± 3.12 g.

Question: What about the “Mice weight Male 1 day” value ([4]; administration for 14 days) of the same compound?
Answer: Its value is 14.66 ± 1.52 g.

Question: And the “Mice weight Male 7 days” value ([4]; administration for 14 days)?
Answer: The value was 16.29 ± 3.25 g.

Question: And the “Mice weight Male 14 days” value ([4]; administration for 14 days)?
Answer: The value was 21.16 ± 3.61 g.

Question: What about the “Mice weight Female” value ([4]; administration for three days) of the same compound?
Answer: The value was 17.80 ± 0.94 g.

Question: What about the “Mice weight Male” value ([4]; administration for three days) of the same compound?
Answer: The value was 18.29 ± 0.85 g.

Question: What about the “Mice weight Male 1 day” value [4, 10] of the same compound?
Answer: Its value is 19.53 ± 0.93 g.

Question: And the “Mice weight Male 7 days” value [4, 10]?
Answer: Its value is 21.35 ± 2.47 g.

Question: What about the “Mice weight Female” value ([4]; single dose test) of the same compound?
Answer: Its value is 17.31 ± 1.22 g.

Question: And the “Mice weight Male” value ([4]; single dose test)?
Answer: Its value is 19.47 ± 0.57 g.

Question: What about the Glutamic oxalacetic transaminase [5, 8] of the same compound?
Answer: The Glutamic oxalacetic transaminase was 73.20 ± 11.19 U.

Question: And the Glutamic-pyruvic transaminase [5, 8]?
Answer: The Glutamic-pyruvic transaminase was 28.40 ± 2.30 U.

Question: What about the “effect on glutamic-pyruvic transaminase and glutamic oxalacetic transaminase” value ([5]; female rats, normoxia) of the same compound?
Answer: The value was “no significant effects”.

Question: What about the Glutamic oxalacetic transaminase [5, 9] of the same compound?
Answer: The Glutamic oxalacetic transaminase was 102.33 ± 11.02 U.

Question: And the Glutamic-pyruvic transaminase [5, 9]?
Answer: The Glutamic-pyruvic transaminase was 41.67 ± 10.97 U.

Question: What about the “effect on glutamic pyruvic transaminase and total bilirubin” value ([5]; hypoxia exposed male rats) of the same compound?
Answer: The value was “no significant effects”.

Question: What about the “effect on serum glutamic oxalacetic transaminase” value ([5]; hypoxia exposed male rats) of the same compound?
Answer: The value was “increasing”.

Question: What about the Glutamic oxalacetic transaminase ([5]; male rats, hypoxia, 0.11 g/kg) of the same compound?
Answer: The Glutamic oxalacetic transaminase was 77.57 ± 6.80 U.

Question: What about the Glutamic-pyruvic transaminase ([5]; male rats, hypoxia, 0.11 g/kg) of the same compound?
Answer: The Glutamic-pyruvic transaminase was 44.00 ± 3.56 U.

Question: And the Total bilirubin ([5]; male rats, hypoxia, 0.11 g/kg)?
Answer: Its Total bilirubin is 0.15 ± 0.16 µmol/L.

Question: What about the “effect on blood glucose” value ([6]; acute hypoxia exposed female rats) of the same compound?
Answer: Its value is “no significant effects”.

Question: And the Blood sugar ([6]; female rats, hypoxia)?
Answer: The Blood sugar was 7.63 ± 0.76 mmol/L.

Question: What about the “effect on blood glucose” value ([6]; female rats, normoxia) of the same compound?
Answer: The value was “lowering the blood glucose”.

Question: What about the Blood sugar ([6]; female rats, normoxia) of the same compound?
Answer: Its Blood sugar is 7.18 ± 0.39 mmol/L.

Question: What about the “effect on blood glucose level” value ([6]; male rats) of the same compound?
Answer: Its value is “no significant effects”.

Question: And the Blood sugar ([6]; male rats, hypoxia)?
Answer: The Blood sugar was 8.87 ± 1.24 mmol/L.

Question: What about the “effect on serum endothelin-1 and nitric oxide” value ([7]; female rats after acute hypoxia exposure) of the same compound?
Answer: The value was “no significant effects”.

Question: And the Endothelin-1 ([7]; female rats, hypoxia)?
Answer: The Endothelin-1 was 55.66 ± 6.39 ng/mL.

Question: And the Nitric oxide ([7]; female rats, hypoxia)?
Answer: The Nitric oxide was 4.96 ± 3.13 µmol/L.

Question: What about the “effect on nitric oxide content” value ([7]; female rats, normoxia) of the same compound?
Answer: The value was “no significant effects”.

Question: What about the “effect on serum endothelin-1 content” value ([7]; female rats, normoxia) of the same compound?
Answer: The value was “can reduce”.

Question: What about the Endothelin-1 ([7]; female rats, normoxia) of the same compound?
Answer: Its Endothelin-1 is 36.18 ± 2.31 ng/mL.

Question: And the Nitric oxide ([7]; female rats, normoxia)?
Answer: Its Nitric oxide is 4.08 ± 0.88 µmol/L.

Question: What about the “effect on serum endothelin-1 and nitric oxide” value ([7]; hypoxia exposed male rats) of the same compound?
Answer: Its value is “slight reduction”.

Question: And the Endothelin-1 ([7]; male rats, hypoxia)?
Answer: Its Endothelin-1 is 42.41 ± 0.7 ng/mL.

Question: And the Nitric oxide ([7]; male rats, hypoxia)?
Answer: Its Nitric oxide is 3.52 ± 1.25 µmol/L.
